These results are taken from US12661410B2, “Compounds for targeted degradation of RET” (C4 Therapeutics, Inc., priority 2020, dated 2026).

Changes are numbered by the printed parent chain.

In experiment [1] the target is T1, RET(KD: 658-1114 G810R) (Homo sapiens, UniProt P07949, G810R).
T1 construct: 658-1114; expressed in transfected cells; host or cells: 293T.165 (293T cells, generated in-house)
T1 sequence (P07949 658-1114 G810R): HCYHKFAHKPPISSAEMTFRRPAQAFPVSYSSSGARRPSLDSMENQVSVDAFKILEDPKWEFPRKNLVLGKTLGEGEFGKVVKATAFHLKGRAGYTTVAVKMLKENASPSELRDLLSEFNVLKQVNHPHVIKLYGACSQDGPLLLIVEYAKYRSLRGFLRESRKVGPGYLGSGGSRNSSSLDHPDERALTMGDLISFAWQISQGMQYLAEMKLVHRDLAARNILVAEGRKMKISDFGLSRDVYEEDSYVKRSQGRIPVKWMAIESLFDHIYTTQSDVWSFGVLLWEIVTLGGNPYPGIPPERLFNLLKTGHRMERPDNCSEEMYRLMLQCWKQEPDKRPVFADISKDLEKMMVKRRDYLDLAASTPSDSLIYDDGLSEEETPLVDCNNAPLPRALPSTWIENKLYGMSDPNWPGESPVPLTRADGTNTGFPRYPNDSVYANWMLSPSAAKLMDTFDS
Kind of experiment: HiBiT-Degradation, RET G810R degradation assay (Nano-Glo HiBiT Lytic), 293T.165 cells. Type of experiment: cell-based. Conditions: for Emax / DC50: 6.0 hours; for Emax: % remaining protein, read-out: 293T.165 RET(KD: 658-1114 G810R) 6.0 hours (Emax); for DC50: half-maximal degradation concentration, read-out: 293T.165 RET(KD: 658-1114 G810R) 6.0 hours (DC50). A digest of the protocol: (§1)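 Engineered 293T cells carry a HiBiT tag on the RET kinase domain, either wild type (line 293T.144) or G810R (line 293T.165). Compounds act for 6 h across a 10 μM-top, half-log 11-point range. Lytic HiBiT luminescence gives remaining protein, fitted for DC50 and Emax.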

Experiment [2] addresses T2, RET (658-1114) (Homo sapiens, UniProt P07949).
T2 construct: 658-1114; expressed in transfected cells; host or cells: 293T.144 (293T cells, generated in-house)
T2 sequence (P07949 658-1114): T1 sequence (P07949 658-1114 G810R) with R153G
As to the kind of experiment: HiBiT-Degradation, RET wild-type degradation assay (Nano-Glo HiBiT Lytic), 293T.144 cells. Format: cell-based. Conditions: for Emax / DC50: 6.0 hours; for Emax: % remaining protein, read-out: 293T.144 RET (658-1114) 6.0 hours (Emax); for DC50: half-maximal degradation concentration, read-out: 293T.144 RET (658-1114) 6.0 hours (DC50). A digest of the protocol:
as §1
(HiBiT is a short tag that completes a luciferase, so light tracks the accessible tagged protein.)

For orientation: Emax means the maximal effect, on the per cent scale that the assay sets. For orientation: DC50 means the midpoint of the concentration-degradation curve. As for `CCC1(C(=O)NC(C)C)CCN(c2ccc(-c3nc(-c4cnn(C5CCN(C(=O)CC6(O)CCN(c7ccc(NC8CCC(=O)NC8=O)cc7C(F)F)CC6)CC5)c4)cn4ncc(C#N)c34)cn2)CC1` (stereo not drawn) [Compound 96, 1-[5-[3-cyano-6-[1-[1-[2-[1-[2-(difluoromethyl)-4-[(2,6-dioxo-3-piperidyl)amino]phenyl]-4-hydroxy-4-piperidyl]acetyl]-4-piperidyl]pyrazol-4-yl]pyrazolo[1,5-a]pyrazin-4-yl]-2-pyridyl]-4-ethyl-N-isopropyl-piperidine-4-carboxamide], in experiment [1], the “293T.165 RET(KD: 658-1114 G810R) 6.0 hours (IP) [nM]” value was “+++ (<100 nM = +++)”, the Emax is less than 50% and the DC50 was less than 100 nM. Moreover, in experiment [2], the “293T.144 RET (658-1114) 6.0 hours (IP) [nM]” value (from here on “293T.144 RET”) was “++++ (<50 nM = ++++)”, the Emax was less than 30% and the DC50 is less than 50 nM.
Consider `COc1ccc(CN2C3CC2CN(c2ccc(-c4nc(-c5cnn([C@H]6CC[C@H](N7CCN(c8cc(OC)c(NC9CCC(=O)NC9=O)cc8F)CC7)CC6)c5)cn5ncc(C#N)c45)cn2)C3)cn1` (relative stereo) [Compound 167, 6-[1-[4-[4-[4-[(2,6-dioxo-3-piperidyl)amino]-2-fluoro-5-methoxy-phenyl]piperazin-1-yl]cyclohexyl]pyrazol-4-yl]-4-[6-[6-[(6-methoxy-3-pyridyl)methyl]-3,6-diazabicyclo[3.1.1]heptan-3-yl]-3-pyridyl]pyrazolo[1,5-a]pyrazine-3-carbonitrile], for which, in experiment [1], the “293T.165 RET(KD: 658-1114 G810R) 6.0 hours (IP) [nM]” value was “++++ (<50 nM = ++++)”, the Emax was less than 30% and the DC50 was less than 50 nM. In experiment [2], the “293T.144 RET” value is “++++ (<50 nM = ++++)”, the Emax is less than 30% and the DC50 is less than 50 nM.
Regarding `COCC1(Cc2ccccn2)CCN(c2ccc(-c3nc(-c4cnn(C5CCN(C(=O)CC6(O)CCN(c7ccc(NC8CCC(=O)NC8=O)cc7F)CC6)CC5)c4)cn4ncc(C#N)c34)cn2)CC1` (stereo not drawn) [Compound 114, 6-[1-[1-[2-[1-[4-[(2,6-dioxo-3-piperidyl)amino]-2-fluoro-phenyl]-4-hydroxy-4-piperidyl]acetyl]-4-piperidyl]pyrazol-4-yl]-4-[6-[4-(methoxymethyl)-4-(2-pyridylmethyl)-1-piperidyl]-3-pyridyl]pyrazolo[1,5-a]pyrazine-3-carbonitrile], in experiment [1], the “293T.165 RET(KD: 658-1114 G810R) 6.0 hours (IP) [nM]” value is “++++ (<50 nM = ++++)”, the Emax was less than 30% and the DC50 was less than 50 nM. In experiment [2], the “293T.144 RET” value is “++++ (<50 nM = ++++)”, the Emax was less than 30% and the DC50 is less than 50 nM.
Consider `N#Cc1cnn2cc(-c3cnn([C@H]4CC[C@H](N5CCC(c6ccc(N[C@@H]7CCC(=O)NC7=O)cc6F)CC5)CC4)c3)nc(-c3ccc(N4CCC5(CC4)OCc4cccnc45)nc3)c12` (relative stereo) [Compound 149, 6-[1-[4-[4-[2-fluoro-4-[[rac-(3R)-2,6-dioxo-3-piperidyl]amino]phenyl]-1-piperidyl]cyclohexyl]pyrazol-4-yl]-4-(6-spiro[5H-furo[3,4-b]pyridine-7,4′-piperidine]-1′-yl-3-pyridyl)pyrazolo[1,5-a]pyrazine-3-carbonitrile], for which, in experiment [1], the “293T.165 RET(KD: 658-1114 G810R) 6.0 hours (IP) [nM]” value was “++++ (<50 nM = ++++)”, the Emax was less than 30% and the DC50 is less than 50 nM. In experiment [2], the “293T.144 RET” value is on record as “++++ (<50 nM = ++++)”, the Emax was less than 30% and the DC50 is less than 50 nM.
